Molecular target: T1, human recombinant FKBP52 (Homo sapiens, UniProt Q02790)
T1 sequence (Q02790 1-459): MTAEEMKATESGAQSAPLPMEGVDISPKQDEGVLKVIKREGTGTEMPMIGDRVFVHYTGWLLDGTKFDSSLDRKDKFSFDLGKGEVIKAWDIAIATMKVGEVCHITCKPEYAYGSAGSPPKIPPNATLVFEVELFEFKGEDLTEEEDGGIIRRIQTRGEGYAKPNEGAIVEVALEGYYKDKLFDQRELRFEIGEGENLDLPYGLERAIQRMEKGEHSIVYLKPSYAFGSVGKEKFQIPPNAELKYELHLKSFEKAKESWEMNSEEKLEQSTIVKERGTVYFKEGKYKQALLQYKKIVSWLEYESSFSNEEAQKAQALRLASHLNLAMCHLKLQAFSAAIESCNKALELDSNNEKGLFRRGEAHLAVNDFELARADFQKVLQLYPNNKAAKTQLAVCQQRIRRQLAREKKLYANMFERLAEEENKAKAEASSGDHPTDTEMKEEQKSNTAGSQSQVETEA
Assay: coupled colorimetric PPIase assay, Ki,app against FKBP52
Assay type: biochemical
Conditions: human recombinant FKBP52, substrate succinyl-ALPF-pNA, printed in the IC50 (nm) FKBP-12 column, read-out: Ki FKBP-52

Q: For `NCc1ccc(OCc2nc([C@@H]3CCCCN3S(=O)(=O)c3nc4ccccc4[nH]3)no2)cc1` [Example 11, 4-(3-[(2S)-1-(1H-Benzo[d]imidazol-2-ylsuffonyl)-2-piperidyl]-1,2,4-oxadiazol-5-ylmethoxy)benzylamine], which Ki is on record?
A: 685 nM

Molecular target: human recombinant FKBP-12 (Homo sapiens, UniProt P62942)
Sequence (P62942 whole entry): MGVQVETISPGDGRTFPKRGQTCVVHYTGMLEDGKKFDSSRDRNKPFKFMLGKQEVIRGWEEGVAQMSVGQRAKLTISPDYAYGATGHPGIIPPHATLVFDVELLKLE
Assay: coupled colorimetric PPIase (rotamase) assay, IC50 against FKBP-12
Assay type: biochemical
Conditions: human recombinant FKBP-12, substrate succinyl-AFPF-pNA, 10° C., pH 8.0
Description: The affinity of the compounds of the formula (I) for FKBP-12 can be determined in vitro in a coupled colorimetric PPlase assay using similar procedures to published methods (e.g. see Kofron, J. L., et al., Biochemistry, 1991, 30, 6127-6134, Zarnt, T., et al., Biochem. J. 1995, 305, 159-164, Holt, D. A., et al., J. Am. Chem. Soc., 1993,115, 9925-9938). In these methods, the cis-trans isomerisation of a hydrophobic amino acid-proline bond in a tetrapeptide substrate (e.g. the phenylalanine-proline bond in N-succinyl-ala-phepro-phe-p-nitroanilide [succinyl-AFPF-pNA]) can be determined by monitoring cleavage of pNA from the transPro-containing peptide by an excess of chymotrypsin.
The IC50 (the concentration of the compound of the formula (I) producing 50% inhibition) values were determined using the following assay methodology. Assay buffer (2.175 ml) (50 mM 4-(2-hydroxyethyl)-1-piperazineethanesulphonic acid (HEPES), 100 mM NaCl, 1 mM dithiothreitol (DTT), pH 8.0) is equilibrated to 10° C. in a cuvette. 12.5 μl of a solution of the present compound in DMSO, 250 μl of a 60 mg/ml solution of a-chymotrypsin in 1 mM aqueous hydrochloric acid and then 50 μl of a solution of human recombinant FKBP-12 (4.5 μM) in assay buffer are added and mixed. The reaction is initiated by addition of 12.5 μl of a solution of 20 mM succinyl-AFPF-pNA in DMSO. The absorbance at 390 nm is monitored for one minute collecting data every 0.25 second. Data are fitted with a first order rate equation with offset and the rate constant obtained corrected for the rate of uncatalysed isomerisation of the substrate. The rate constant determined at different inhibitor concentrations (10 nM to 100 μM) is expressed as % inhibition of the control rate constant. The IC50 is estimated using a nonlinear least squares curve fitting routine of the sigmoidal dose response data.

Q: `NCc1ccc(-c2nc([C@@H]3CCCCN3S(=O)(=O)CC3CCCCC3)no2)o1` [Example 25, [5-(3-(2S)-1-[(Cyclohexylmethyl)sulfonyl]-2-piperidyl-1,2,4-oxadiazol-5-yl)-2-furyl]methylamine] was tested. Which IC50 did it give?
A: 81 nM

Q: For `O=S(=O)(c1nc2ccccc2[nH]1)N1CCCCC1c1noc(-c2ncccn2)n1` (centres unmarked) [Example 65], which IC50 is on record?
A: 442 nM

Q: For `O=S(=O)(c1ccc(F)cc1)N1CCCC[C@H]1c1nnc(CCc2ccccc2)o1` [Example 42], which IC50 is on record?
A: 2010 nM

Q: Which IC50 does the source give for `O=S(=O)(c1nc2ccccc2[nH]1)N1CCCC[C@H]1c1noc(Cc2ccccc2)n1` [Example 1, 1H-Benzo[d]imidazol-2-yl[(2S)-2-(5-benzyl-1,2,4-oxadiazol-3-yl)-1-piperidyl]sulfone] here?
A: 95 nM

Q: `O=S(=O)(c1ccc(F)cc1)N1CCCC[C@H]1c1nnn(Cc2ccccc2)n1` [Example 43] was tested. Which IC50 did it give?
A: 1670 nM

Q: Which IC50 does the source give for `O=S(=O)(CC1CCCCC1)N1CCCC[C@H]1c1noc(COC2CCNCC2)n1` [Example 23, 3-[(2S)-1-Cyclohexylmethylsulfonyl-2-piperidyl]-5-[4-piperidyloxymethyl]-1,2,4-oxadiazole] here?
A: 336 nM

Q: With `CNCc1ccc(OCc2nc(C3CCCCN3S(=O)(=O)c3nc4ccccc4[nH]3)no2)cc1` (centres unmarked) [Example 14, N-[4-(3-[1-(1H-Benzo[d]imidazol-2-ylsulfonyl)-2-piperidyl]-1,2,4-oxadiazol-5-ylmethoxy)benzyl]-N-methylamine] as the molecule, how does the IC50 read?
A: 91 nM

Reference: patent US6610707B1, “Heterocyclic compounds as inhibitors of rotomase enzymes” (Pfizer Inc., priority 1998, dated 2003)
